Reference: PubChem BioAssay AID504329 (Southern Research Specialized Biocontainment Screening …, 2011)

Test system: NS1A functional cell-based assay, percent inhibition
Assay: H1N1 influenza NS1A inhibitors, functional cell based assay (AID 504329)

Compound	IC50 [µM]
CN(C)c1ccnc2c[cH-]cc12.[Fe].c1ccc(-[c-]2[c-](-c3ccccc3)[c-](-c3ccccc3)[c-](-c3ccccc3)[c-]2-c2ccccc2)cc1 (configuration not stated)	9.29
C#CCOCCOCCOCCNc1nc(N2CCN(C(=O)CCCCCCCCCCNC(=O)[C@H]([C@@H](C)CC)n3cc(CCCCN=C(N)N)nn3)CC2)nc(N2CCN(C(=O)CCCCCCCCCCNC(=O)[C@H](CO)n3cc(CCCCCN)nn3)CC2)n1	16.1
